Assay results from US5424185A, “Human high-affinity neurotransmitter uptake system” (Baylor College of Medicine, priority 1990, dated 1995).
Read-outs that look alike come from different tables or passages of the source.

Assays:
[1] = test system: human L-glutamate transporter (L-Glul cells); assay: L-[3H]glutamate uptake by L-Glul cells; assay type: cell-based; conditions: unlabelled neurotransmitters, EAA receptor ligands, co-transporter inhibitors
Experimental: Both L-Glul and L-M cells were assessed for their kinetic properties of [^3 H] Glu uptake, and the results were analyzed by fitting to Michaelis-Menten kinetics. This was done by incubating cells with differing concentrations of [^3 H] Glu (ranging from 0.05 to 2 μM) for 10 minutes, at both 37° C. and 0° C. The amount of [^3 H] Glu retained by the cells following incubation was then quantitated and converted (using the manufacturer's specific activity for [^3 H] Glu to the corresponding picomole-equivalent of the radioligand, for each concentration of radioligand at each temperature. Then, the pmol value is normalized by the length of incubation and the amount of protein corresponding to the number of cells assayed. The resulting value, expressed in units of pmol/min/mg protein, is the initial velocity value for each concentration of [^3 H] Glu at each temperature. The initial velocity measured at 37° C. represents total initial velocity; the initial velocity measured at 0° C. represents nonspecific initial velocity. The difference between these two velocity values is then the specific initial velocity, denoted by "V", for each concentration of [^3 H] Glu.
Various drugs specific for excitatory amino acid (EAA) receptor subtypes were assessed for their effects on [^3 H] Glu uptake by L-Glul cells.
Glu uptake by L-Glul cells.

[2] = test system: GABA transporter (L-GAB1 cells); assay: [3H]GABA uptake by L-GAB1 cells; assay type: cell-based, human; conditions: for ligand-specificity of [3H]GABA uptake by L-GAB1 cells: competitor at 100-fold excess relative to [3H]GABA
Experimental: Using concentrations of [^3 H] GABA ranging from 2 to 500 μM, the kinetic profile of GABA uptake was determined for both L-GAB1 and L-M cells. The initial velocity of GABA uptake was measured and plotted against the corresponding [^3 H] GABA concentration for both cell lines. […] The velocity profile for L-GAB1 cells was subtracted by that of L-M cells, and the resulting data used for a double-reciprocal plot of velocity-^1 against GABA concentration-^1. The velocity profile for L-M cells was also transformed into a double-reciprocal plot.
Several known inhibitors of high-affinity GABA uptake were used to examine their efficacies in inhibiting [^3 H] GABA uptake by L-GAB1 cells. […] Each of these agents was used at several concentrations ranging from 1 to 100 μM in assays of [^3 H] GABA uptake by L-GAB1 cells. […] GABA uptake by L-GAB1 cells.
L-GAB1 cells were also analyzed in terms of their ligand-specificity in the high-affinity GABA uptake mechanism.

Rat Synaptosomes = conditions: literature values; read-out: Representative IC50, Rat Synaptosomes; cited from earlier work
[3] = target: T1, human 5HT transporter (L-S1 cells) (Homo sapiens, UniProt P31645); assay: [3H]-5-HT uptake by L-S1 cells; assay type: cell-based
T1 construct: expressed in transfected cells; host or cells: mouse L-M fibroblasts (ATCC CCL 1.2) transfected with total human genomic DNA and pSV2neo; clone L-S1
Experimental: The cells were incubated at 37° C. for an additional 40 min.
L-S1 and L-M cells were preplated into 96-well culture plates. For uptake assays, the growth medium was removed from each well and the cells rinsed several times with oxygenated Ringer's buffer supplemented with 0.5 mM pargyline and 0.5 mM ascorbate. […] […] […] The cells remaining in the wells were lysed with 1% sodium dodecyl sulphate (SDS) and transferred to counting vials containing 5 ml of ACS scintillant (Amersham), for liquid scintillation spectrometry. For each assay, 6-8 parallel sets of wells were assayed simultaneously.
(§1) Non-specific activity was determined from parallel assays carried out at 0° C. Initial velocities were calculated in terms of pmol/mg protein/min by subtracting velocity values obtained at 0° C. from those obtained at 37° C.
(§2) Cells were assayed in the presence of each inhibitor for 40 minutes at 37° C., washed with Ringer's buffer and prepared for counting as previously described. Five confluent wells were assayed at each inhibitor concentration. The IC50 value for each inhibitor was determined by plotting the percent activity against the logarithm of inhibitor concentration. Measured levels of uptake in the presence of inhibitors were expressed as the percentage of maximal uptake (100 %) in the absence of inhibitor.

[4] = target: T2, human 5HT transporter (L-S2 cells) (Homo sapiens, UniProt P31645); assay: [3H]-5-HT uptake by L-S2 cells; assay type: cell-based
T2 construct: expressed in transfected cells; host or cells: mouse L-M fibroblasts (ATCC CCL 1.2) transfected with total human genomic DNA and pSV2neo; clone L-S2
Experimental: L-S1 and L-M cells were preplated into 96-well culture plates. For uptake assays, the growth medium was removed from each well and the cells rinsed several times with oxygenated Ringer's buffer supplemented with 0.5 mM pargyline and 0.5 mM ascorbate. […] The radioligand was added to a final concentration of 0.1 μM and incubated with the cells at 37° C. for 40 minutes. The incubation mixture was then removed and each well was washed three times at room temperature with Ringer's buffer. The cells remaining in the wells were lysed with 1% sodium dodecyl sulphate (SDS) and transferred to counting vials containing 5 ml of ACS scintillant (Amersham), for liquid scintillation spectrometry. For each assay, 6-8 parallel sets of wells were assayed simultaneously.
as §1, §2

[5] = test system: neuronal and glial GABA uptake systems in the CNS; conditions: neuronal and glial uptake systems, literature; read-out: IC50, high-affinity GABA uptake in the CNS; cited from earlier work
[6] = test system: aspartate/glutamate co-transport system (L-Aspl cells); assay: D-[3H]aspartate uptake by L-Aspl cells; assay type: cell-based, human
Experimental: Kinetic analyses of D-[^3 H] […] Asp. […] Asp uptake.
The specificity of the high-affinity transport mechanism in L-Aspl cells also was examined. […] Asp.
The high-affinity transport system in L-Aspl cells was also analyzed in terms of its relative sensitivity to compounds specific for various subtypes of excitatory amino acid (EAA) receptors.
A series of known inhibitors of high-affinity D-Asp uptake systems (including L-cysteic acid (L-CA), L-cysteine sulfinic acid (L-CSA), aminophosphonoproprionic acid (APPA) and D-threoaspartic acid (THAA)) were also tested for their effects on D-[^3 H] Asp uptake by L-Aspl cells.

[7] = ligand 10 μM, 10 min preincubation, 0.1 μM [3H]-5HT, 40 min, 37° C. (FIG. 1)

T1 sequence (P31645 whole entry): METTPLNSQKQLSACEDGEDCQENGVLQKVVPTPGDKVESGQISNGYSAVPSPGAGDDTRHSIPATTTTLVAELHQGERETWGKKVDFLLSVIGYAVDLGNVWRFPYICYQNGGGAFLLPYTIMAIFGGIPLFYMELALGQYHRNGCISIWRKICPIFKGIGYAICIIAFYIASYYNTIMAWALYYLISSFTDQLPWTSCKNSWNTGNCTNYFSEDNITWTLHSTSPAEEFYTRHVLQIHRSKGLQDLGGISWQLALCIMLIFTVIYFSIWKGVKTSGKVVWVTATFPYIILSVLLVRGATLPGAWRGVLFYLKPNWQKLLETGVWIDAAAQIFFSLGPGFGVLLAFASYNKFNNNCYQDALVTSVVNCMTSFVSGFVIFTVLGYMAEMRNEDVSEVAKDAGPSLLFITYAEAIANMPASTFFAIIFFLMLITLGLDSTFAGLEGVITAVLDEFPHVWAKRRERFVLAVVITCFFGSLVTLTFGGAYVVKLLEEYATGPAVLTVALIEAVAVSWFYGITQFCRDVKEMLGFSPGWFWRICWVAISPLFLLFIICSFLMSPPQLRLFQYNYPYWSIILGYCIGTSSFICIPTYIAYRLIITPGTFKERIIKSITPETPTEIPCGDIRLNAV
T2 sequence (P31645 whole entry): as above

Row | Molecule | effect on [3H]Glu uptake by L-Glul cells [1] | effect on D-[3H]Asp uptake by L-Aspl cells [6] | further results
1 | NC[C@H](O)c1ccc(O)c(O)c1 [Norepinephrine, norepinephrine] | only unlabelled L-glutamate seems to mediate some inhibition | – | ligand-specificity of [3H]GABA uptake by L-GAB1 cells [2]: not inhibited; IC50 (Rat Synaptosomes): > 10 µM
2 | C[C@H](N)C(=O)O [L-alanine] | – | – | ligand-specificity of [3H]GABA uptake by L-GAB1 cells [2]: somewhat sensitive
3 | NCCc1ccc(O)c(O)c1 [dopamine] | only unlabelled L-glutamate seems to mediate some inhibition | – | –
4 | N[C@@H](Cc1ccccc1)C(=O)O [phenylalanine] | – | – | effect of competing ligand on [3H]-5HT uptake, L-S1 [3, 7]: nor the amino acid substrates for catecholamine synthesis, phenylalanine and tyrosine, inhibited uptake of 5-HT; effect of competing ligand on [3H]-5HT uptake, L-S2 [4, 7]: nor the amino acid substrates for catecholamine synthesis, phenylalanine and tyrosine, inhibited uptake of 5-HT; ligand-specificity of [3H]GABA uptake by L-GAB1 cells [2]: not sensitive
5 | O=C(O)[C@@H]1CNCC[C@@H]1O (relative stereo) [4-cis-OHNA, 4-cis-hydroxynipecotic acid] | – | – | effect of GABA uptake inhibitors on [3H]GABA uptake by L-GAB1 cells ([2]; inhibitor 1 to 100 μM): without measurable effect; IC50 [5]: 10 to 200 µM
6 | NCCCC[C@H](N)C(=O)O [lysine] | – | – | ligand-specificity of [3H]GABA uptake by L-GAB1 cells [2]: not sensitive
7 | COc1ccc2[nH]cc(CCN)c2c1 [5-methoxytryptamine] | – | – | IC50 [3]: 3.5 µM; IC50 [4]: 1.5 µM; IC50 (Rat Synaptosomes): 25 µM
8 | N[C@@H](CS(=O)(=O)O)C(=O)O [cysteic acid] | only unlabelled L-glutamate seems to mediate some inhibition | – | –
9 | N[C@H](CCC(=O)NCS(=O)(=O)O)C(=O)O [GAMS] | without effect | – | –
10 | Cc1onc(O)c1CC(N)C(=O)O [AHMIP, D-amino-3-hydroxy-5-methyl-4-isoxazoneproprionic acid] | no inhibitory effect | – | –
11 | NC(CS(=O)O)C(=O)O (stereo not shown) [cysteine sulfinate] | no effect | – | –
12 | N[C@@H](Cn1oc(=O)[nH]c1=O)C(=O)O [quisqualate] | potent inhibitor | without effect | –
13 | N[C@H](CCS(=O)(=O)O)C(=O)O [D-homocysteic acid] | without effect | – | –
14 | N[C@@H](CS)C(=O)O [L-cysteine] | – | slight and not statistically significant | –
15 | NC(CCCP(=O)(O)O)C(=O)O (stereo not shown) [APV, 2-amino-5-phosphonovaleric acid] | without effect | – | –
16 | N[C@@H](Cc1c[nH]c2ccccc12)C(=O)O [tryptophan] | – | – | effect of competing ligand on [3H]-5HT uptake, L-S1 [3, 7]: Neither tryptophan, the amino acid precursor of serotonin, nor the amino acid substrates for catecholamine synthesis, phenylalanine and tyrosine, inhibited uptake of 5-HT; effect of competing ligand on [3H]-5HT uptake, L-S2 [4, 7]: Neither tryptophan, the amino acid precursor of serotonin, nor the amino acid substrates for catecholamine synthesis, phenylalanine and tyrosine, inhibited uptake of 5-HT; ligand-specificity of [3H]GABA uptake by L-GAB1 cells [2]: not sensitive
17 | CN[C@H](CC(=O)O)C(=O)O [NMDA, N-methyl-D-aspartic acid] | without effect | without effect | –
18 | N[C@@H](Cc1ccc(O)cc1)C(=O)O [tyrosine] | – | – | effect of competing ligand on [3H]-5HT uptake, L-S1 [3]: nor the amino acid substrates for catecholamine synthesis, phenylalanine and tyrosine, inhibited uptake of 5-HT; effect of competing ligand on [3H]-5HT uptake, L-S2 [4]: nor the amino acid substrates for catecholamine synthesis, phenylalanine and tyrosine, inhibited uptake of 5-HT; ligand-specificity of [3H]GABA uptake by L-GAB1 cells [2]: not sensitive
19 | N[C@@H](CO)C(=O)O [serine] | – | – | ligand-specificity of [3H]GABA uptake by L-GAB1 cells [2]: not sensitive

Row | Molecule | effect on [3H]Glu uptake by L-Glul cells [1] | effect on D-[3H]Asp uptake by L-Aspl cells [6] | further results
20 | NC(CP(=O)(O)O)C(=O)O (stereo not shown) [APPA, aminophosphonoproprionic acid] | – | moderate in inhibitory potency | –
21 | NCCS(=O)(=O)O [taurine] | only unlabelled L-glutamate seems to mediate some inhibition | slight and not statistically significant | –
22 | CCOC(=O)CC[C@H](N)C(=O)OCC [DEEG, glutamate diethylester] | – | without effect | –
23 | COc1ccc2[nH]cc(CCNC(C)=O)c2c1 [N-Acetyl-5-methoxytryptamine, N-acetyl-5-methoxytryptamine] | – | – | IC50 (Rat Synaptosomes): 66 µM
24 | N=C(N)NCCC[C@H](N)C(=O)O [L-arginine] | – | – | ligand-specificity of [3H]GABA uptake by L-GAB1 cells [2]: somewhat sensitive
25 | methyl-glutamylphosphonic acid [MGPA] | without effect | – | –
26 | N[C@@H](CS(=O)(=O)O)C(=O)O [L-CA, L-cysteic acid] | – | potent inhibitory effects | –
27 | O=C(O)[C@@H]1CCCN1 [proline] | – | – | ligand-specificity of [3H]GABA uptake by L-GAB1 cells [2]: not sensitive
28 | dihydroxykainate | – | significant inhibition | –
29 | NC(CCCC(=O)O)C(=O)O (stereo not shown) [AAA, a-aminoadipic acid] | – | virtually without inhibitory effect | –
30 | CNC[C@H](O)c1ccc(O)c(O)c1 [epinephrine] | – | – | ligand-specificity of [3H]GABA uptake by L-GAB1 cells [2]: not inhibited
31 | C=C(C)[C@H]1CN[C@H](C(=O)O)[C@H]1CC(=O)O [kainic acid] | without effect | significant inhibition | –
32 | N[C@@H](CCS(=O)(=O)O)C(=O)O [LHCA, L-homocysteic acid] | – | without effect | –
33 | N[C@H](C(=O)O)c1cc(=O)[nH]o1 [ibotenic acid] | without effect | – | –
34 | NC(CCP(=O)(O)O)C(=O)O (stereo not shown) [AP4, 2-amino-4-phosphonobutyric acid] | without effect | – | –
35 | NC(=O)CC[C@H](N)C(=O)O [L-glutamine] | – | slight and not statistically significant | –
36 | N[C@@H](C(=O)O)[C@@H](O)C(=O)O [THAA, D-threoaspartic acid] | – | potent inhibitory effects | –
37 | N[C@@H](CS(=O)O)C(=O)O [L-CSA, L-cysteine sulfinic acid] | – | potent inhibitory effects | –
